Measurements taken from ChEMBL document CHEMBL2440076, “New triarylpyrazoles as broad-spectrum anticancer agents: design, synthesis, and biological evaluation” (Eur J Med Chem, 2013).

How the values were obtained:
Format in all cases: functional
K562 = assay: Growth inhibition of human K562 cells assessed as cell growth at 3X10'-6 M after 48 hrs by sulforhodamine B assay; details: K562, 48 h, read-out: Activity
SW-620 [1] = assay: Growth inhibition of human SW620 cells assessed as cell growth at 3X10'-5 M after 48 hrs by sulforhodamine B assay; details: SW-620, 48 h, read-out: Activity
SNB-19 [2] = assay: Growth inhibition of human SNB19 cells assessed as cell growth at 3X10'-5 M after 48 hrs by sulforhodamine B assay; details: SNB-19, 48 h, read-out: Activity
SNB-19 [3] = assay: Growth inhibition of human SNB19 cells assessed as cell growth at 3X10'-8 M after 48 hrs by sulforhodamine B assay; details: SNB-19, 48 h, read-out: Activity
OVCAR-5 = assay: Growth inhibition of human OVCAR5 cells assessed as cell growth at 3X10'-8 M after 48 hrs by sulforhodamine B assay; details: OVCAR-5, 48 h, read-out: Activity
SK-MEL-28 = assay: Growth inhibition of human SK-MEL-28 cells assessed as cell growth at 3X10'-7 M after 48 hrs by sulforhodamine B assay; details: SK-MEL-28, 48 h, read-out: Activity
OVCAR-4 = assay: Growth inhibition of human OVCAR4 cells assessed as cell growth at 3X10'-6 M after 48 hrs by sulforhodamine B assay; details: OVCAR-4, 48 h, read-out: Activity
Malme-3M [4] = assay: Growth inhibition of human MALME-3M cells assessed as cell growth at 3X10'-5 M after 48 hrs by sulforhodamine B assay; details: read-out: Activity
HL-60(TB) [5] = assay: Growth inhibition of human HL-60(TB) cells assessed as cell growth at 3X10'-9 M after 48 hrs by sulforhodamine B assay; details: HL-60, 48 h, read-out: Activity
HL-60(TB) [6] = assay: Growth inhibition of human HL-60(TB) cells assessed as cell growth at 3X10'-6 M after 48 hrs by sulforhodamine B assay; details: HL-60, 48 h, read-out: Activity
MDA-MB-435 = assay: Growth inhibition of human MDA-MB-435 cells assessed as cell growth at 3X10'-8 M after 48 hrs by sulforhodamine B assay; details: MDA-MB-435, 48 h, read-out: Activity
OVCAR-8 = assay: Growth inhibition of human OVCAR8 cells assessed as cell growth at 3X10'-8 M after 48 hrs by sulforhodamine B assay; details: OVCAR-8, 48 h, read-out: Activity
SK-MEL-2 = assay: Growth inhibition of human SK-MEL-2 cells assessed as cell growth at 3X10'-8 M after 48 hrs by sulforhodamine B assay; details: SK-MEL-2, 48 h, read-out: Activity
LOX IMVI = assay: Growth inhibition of human LOXIMVI cells assessed as cell growth at 3X10'-5 M after 48 hrs by sulforhodamine B assay; details: read-out: Activity
IGROV-1 = assay: Growth inhibition of human IGROV1 cells assessed as cell growth at 3X10'-7 M after 48 hrs by sulforhodamine B assay; details: IGROV-1, 48 h, read-out: Activity
SNB-19 [7] = assay: Growth inhibition of human SNB19 cells assessed as cell growth at 3X10'-7 M after 48 hrs by sulforhodamine B assay; details: SNB-19, 48 h, read-out: Activity
CCRF-CEM = assay: Growth inhibition of human CCRF-CEM cells assessed as cell growth at 3X10'-5 M after 48 hrs by sulforhodamine B assay; details: read-out: Activity
COLO 205 = assay: Growth inhibition of human COLO205 cells assessed as cell growth at 3X10'-6 M after 48 hrs by sulforhodamine B assay; details: COLO 205, 48 h, read-out: Activity
SF-539 = assay: Growth inhibition of human SF539 cells assessed as cell growth at 3X10'-6 M after 48 hrs by sulforhodamine B assay; details: SF-539, 48 h, read-out: Activity
Malme-3M [8] = assay: Growth inhibition of human MALME-3M cells assessed as cell growth at 3X10'-7 M after 48 hrs by sulforhodamine B assay; details: read-out: Activity
OVCAR-3 = assay: Growth inhibition of human OVCAR3 cells assessed as cell growth at 3X10'-7 M after 48 hrs by sulforhodamine B assay; details: OVCAR-3, 48 h, read-out: Activity
SF-295 [9] = assay: Growth inhibition of human SF295 cells assessed as cell growth at 3X10'-6 M after 48 hrs by sulforhodamine B assay; details: SF-295, 48 h, read-out: Activity
MDA-MB-468 = assay: Growth inhibition of human MDA-MB-468 cells assessed as cell growth at 3X10'-8 M after 48 hrs by sulforhodamine B assay; details: MDA-MB-468, 48 h, read-out: Activity
UO-31 = assay: Growth inhibition of human UO31 cells assessed as cell growth at 3X10'-6 M after 48 hrs by sulforhodamine B assay; details: UO-31, 48 h, read-out: Activity
A498 = assay: Growth inhibition of human A498 cells assessed as cell growth at 3X10'-7 M after 48 hrs by sulforhodamine B assay; details: A498, 48 h, read-out: Activity
HOP-92 = assay: Growth inhibition of human HOP92 cells assessed as cell growth at 3X10'-9 M after 48 hrs by sulforhodamine B assay; details: HOP-92, 48 h, read-out: Activity
SN12C = assay: Growth inhibition of human SN12C cells assessed as cell growth at 3X10'-6 M after 48 hrs by sulforhodamine B assay; details: read-out: Activity
MOLT-4 = assay: Growth inhibition of human MOLT4 cells assessed as cell growth at 3X10'-9 M after 48 hrs by sulforhodamine B assay; details: MOLT-4, 48 h, read-out: Activity
M14 = assay: Growth inhibition of human M14 cells assessed as cell growth at 3X10'-7 M after 48 hrs by sulforhodamine B assay; details: M14, 48 h, read-out: Activity
SK-MEL-5 = assay: Growth inhibition of human SK-MEL-5 cells assessed as cell growth at 3X10'-9 M after 48 hrs by sulforhodamine B assay; details: SK-MEL-5, 48 h, read-out: Activity
SF-295 [10] = assay: Growth inhibition of human SF295 cells assessed as cell growth at 3X10'-5 M after 48 hrs by sulforhodamine B assay; details: SF-295, 48 h, read-out: Activity
A549 = assay: Growth inhibition of human A549/ATCC cells assessed as cell growth at 3X10'-6 M after 48 hrs by sulforhodamine B assay; details: A549, 48 h, read-out: Activity
RXF 393 = assay: Growth inhibition of human RXF393 cells assessed as cell growth at 3X10'-7 M after 48 hrs by sulforhodamine B assay; details: RXF 393, 48 h, read-out: Activity
SW-620 [11] = assay: Growth inhibition of human SW620 cells assessed as cell growth at 3X10'-8 M after 48 hrs by sulforhodamine B assay; details: SW-620, 48 h, read-out: Activity
KM12 = assay: Growth inhibition of human KM12 cells assessed as cell growth at 3X10'-9 M after 48 hrs by sulforhodamine B assay; details: KM12, 48 h, read-out: Activity
SNB-75 = assay: Growth inhibition of human SNB75 cells assessed as cell growth at 3X10'-6 M after 48 hrs by sulforhodamine B assay; details: SNB-75, 48 h, read-out: Activity

O=C(Nc1cccc(-n2cc(-c3ccncc3)c(-c3ccc(Cl)c(O)c3)n2)c1)Nc1ccc(Cl)c(C(F)(F)F)c1 gave a growth at 3 µM (K562) of 3%, a growth at 30 µM (SW-620 [1]) of -43% and a growth at 30 µM (SNB-19 [2]) of -42%. The growth at 0.03 µM (SNB-19 [3]) was 94%, the growth at 0.03 µM (OVCAR-5) was 85% and the growth at 0.3 µM (SK-MEL-28) was 95%. It also gave a growth at 3 µM (OVCAR-4) of 17%, a growth at 30 µM (Malme-3M [4]) of -70% and a growth at 0.003 µM (HL-60(TB) [5]) of 116%. It also gave a growth at 3 µM (HL-60(TB) [6]) of 6%, a growth at 0.03 µM (MDA-MB-435) of 94% and a growth at 0.03 µM (OVCAR-8) of 95%. For the same compound, the growth at 0.03 µM (SK-MEL-2) was 113%, the growth at 30 µM (LOX IMVI) was -91% and the growth at 0.3 µM (IGROV-1) was 85%. The growth at 0.3 µM (SNB-19 [7]) was 98%, the growth at 30 µM (CCRF-CEM) was -14% and the growth at 3 µM (COLO 205) was 42%. The growth at 3 µM (SF-539) was -14%, the growth at 0.3 µM (Malme-3M [8]) was 77% and the growth at 0.3 µM (OVCAR-3) was 101%. It also gave a growth at 3 µM (SF-295 [9]) of -22%, a growth at 0.03 µM (MDA-MB-468) of 85% and a growth at 3 µM (UO-31) of -3%. For the same compound, the growth at 0.3 µM (A498) was 95%, the growth at 0.003 µM (HOP-92) was 79% and the growth at 3 µM (SN12C) was 15%. It also gave a growth at 0.003 µM (MOLT-4) of 110%, a growth at 0.3 µM (M14) of 94% and a growth at 0.003 µM (SK-MEL-5) of 99%. For the same compound, the growth at 30 µM (SF-295 [10]) was -41%, the growth at 3 µM (A549) was 7% and the growth at 0.3 µM (RXF 393) was 69%. The growth at 0.03 µM (SW-620 [11]) was 101% and the growth at 0.003 µM (KM12) was 101%.
For O=C(Nc1cccc(-n2cc(-c3ccncc3)c(-c3ccc(Cl)c(O)c3)n2)c1)Nc1cccc(C(F)(F)F)c1, the growth at 3 µM (K562) was 22%, the growth at 30 µM (SW-620 [1]) was 8% and the growth at 30 µM (SNB-19 [2]) was 20%. For the same compound, the growth at 0.03 µM (SNB-19 [3]) was 98%, the growth at 0.03 µM (OVCAR-5) was 100% and the growth at 0.3 µM (SK-MEL-28) was 101%. It also gave a growth at 3 µM (OVCAR-4) of 49%, a growth at 3 µM (SNB-75) of 53% and a growth at 30 µM (Malme-3M [4]) of -10%. For the same compound, the growth at 0.003 µM (HL-60(TB) [5]) was 99%, the growth at 3 µM (HL-60(TB) [6]) was 41% and the growth at 0.03 µM (MDA-MB-435) was 100%. It also gave a growth at 0.03 µM (OVCAR-8) of 106%, a growth at 0.03 µM (SK-MEL-2) of 98% and a growth at 30 µM (LOX IMVI) of -50%. For the same compound, the growth at 0.3 µM (IGROV-1) was 100%, the growth at 0.3 µM (SNB-19 [7]) was 96% and the growth at 30 µM (CCRF-CEM) was 7%. For the same compound, the growth at 3 µM (COLO 205) was 90%, the growth at 3 µM (SF-539) was 54% and the growth at 0.3 µM (Malme-3M [8]) was 87%. For the same compound, the growth at 0.3 µM (OVCAR-3) was 92%, the growth at 3 µM (SF-295 [9]) was 7% and the growth at 0.03 µM (MDA-MB-468) was 89%. For the same compound, the growth at 3 µM (UO-31) was 37%, the growth at 0.3 µM (A498) was 80% and the growth at 0.003 µM (HOP-92) was 85%. The growth at 3 µM (SN12C) was 37%, the growth at 0.003 µM (MOLT-4) was 97% and the growth at 0.3 µM (M14) was 100%. It also gave a growth at 0.003 µM (SK-MEL-5) of 103%, a growth at 30 µM (SF-295 [10]) of -53% and a growth at 3 µM (A549) of 24%. For the same compound, the growth at 0.3 µM (RXF 393) was 88%, the growth at 0.03 µM (SW-620 [11]) was 95% and the growth at 0.003 µM (KM12) was 94%.
